Patent publication US20240342292A1, “Compounds for the Degradation of EGFR Kinase” (BeiGene Switzerland GmbH, priority 2021, published 2024)

Key:
[1] = test system: Del19/T790M/C797S EGFR; experiment: EGFR degradation HTRF assay in H1975-clone #28 (DTC) cells; type: cell-based; conditions: H1975 # 28 DTC (Del19/T790M/C797S), 16h treatment; for DC50: HTRF; for Dmax (%): maximum percentage of degradation
Procedure, shortened: (§1)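 H1975 clones stably overexpressing mutant EGFR by lentivirus, with endogenous EGFR knocked out by sgRNA and homozygosity confirmed by sequencing, were treated 16 h at 37 °C with compounds in 0.2% DMSO medium, 8 doses from 10 uM in 5-fold dilution. Lysates were read by HTRF (665/620 nm); DC50 came from a four-parameter fit.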

[2] = biological target: T1, L858R/T790M/C797S EGFR (Homo sapiens, UniProt P00533, C797S/L858R/T790M); experiment: EGFR degradation HTRF assay in H1975-clone #25 (LTC) cells; type: cell-based; conditions: 16h treatment; for DC50: HTRF; for Dmax: NCI-H1975, H1975 # 25-LTC (L858R/T790M/C797S)
T1 construct: expressed in transfected cells; host or cells: H1975 clone #25 (lentiviral over-expression, endogenous EGFR knocked out by sgRNA)
Procedure, shortened: as §1

[3] = H1975 # 25-LTC (L858R/T790M/C797S)
[4] = maximum percentage of degradation

Compound | DC50 [1] | Dmax (%) [1] | DC50 [2, 3] | Dmax [2, 4] | Dmax (%) ([2]; H1975 # 25-LTC (L858R/T790M/C797S), maximum percentage of degradation)
Cc1cc2cc(n1)-c1cnn(C)c1OCCC[C@@H](C)CN1/C(=N/C2=O)Nc2ccc(CN3CCN(C(=O)[C@@H]4CCN(c5cc(F)c([C@H]6CCC(=O)NC6=O)c(F)c5)C4)C[C@H]3CO)cc21 [Example 196, (R)-3-(2,6-difluoro-4-((R)-3-((S)-3-(hydroxymethyl)-4-(((R,E)-1^1,2^6,7-trimethyl-3-oxo-5^2,5^3-dihydro-1^1H,5^1H-11-oxa-4-aza-5(2,1)-benzo[d]imidazola-2(2,4)-pyridina-1(4,5)-pyrazolacycloundecaphane-56-yl)methyl)piperazine-1-carbonyl)pyrrolidin-1-yl)phenyl)piperidine-2,6-dione] | 0.598 nM | 78.44% | 0.716 nM | 87.1% | –
(R,E)-N—((S)-1-(4-((R)-2,6-dioxopiperidin-3-yl)-3,5-difluorophenethyl)azepan-4-yl)-N,1^1,2^6,7-tetramethyl-3-oxo-5^2,5^3-dihydro-1^1H,5^1H-11-oxa-4-aza-5(2,1)-benzo[d]imidazola-2(2,4)-pyridina-1(4,5)-pyrazolacycloundecaphane-5^6-carboxamide [Example 340] | 0.587 nM | 83.73% | 0.28 nM | – | 91.69%
Cc1cc2cc(n1)-c1cnn(C)c1OCC[C@H]1C[C@@H]1CN1/C(=N/C2=O)Nc2ccc(N3CCN(C[C@H]4C[C@H](Nc5cc(F)c([C@H]6CCC(=O)NC6=O)c(F)c5)C4)CC3)cc21 [Example 457, (R)-3-(4-(((1S,3R)-3-((4-((7^1S,7^2R,E)-1^1,2^6-dimethyl-3-oxo-5^2,5^3-dihydro-1^1H,5^1H-10-oxa-4-aza-5(2,1)-benzo[d]imidazola-2(2,4)-pyridina-1(4,5)-pyrazola-7(1,2)-cyclopropanacyclodecaphane-5^6-yl)piperazin-1-yl)methyl)cyclobutyl)amino)-2,6-difluorophenyl)piperidine-2,6-dione] | 0.709 nM | 91.81% | 0.632 nM | 92.8% | –
Cc1cc2cc(n1)-c1cnn(C)c1OCCC[C@@H](C)CN1/C(=N/C2=O)Nc2ccc(CN3CC4CCC3CN4C(=O)[C@@H]3CCN(c4cc(F)c([C@H]5CCC(=O)NC5=O)c(F)c4)C3)cc21 (stereo partly drawn) [Example 164, (3R)-3-(2,6-difluoro-4-((3R)-3-(5-(((R,E)-1^1,2^6,7-trimethyl-3-oxo-5^2,5^3-dihydro-1^1H,5^1H-11-oxa-4-aza-5(2,1)-benzo[d]imidazola-2(2,4)-pyridina-1(4,5)-pyrazolacycloundecaphane-5^6-yl)methyl)-2,5-diazabicyclo[2.2.2]octane-2-carbonyl)pyrrolidin-1-yl)phenyl)piperidine-2,6-dione] | 1.95 nM | 73.21% | 1.46 nM | 83.1% | –
CCN(C(=O)c1ccc2c(c1)N1C[C@H](C)CCCOc3c(cnn3C)-c3cc(cc(C)n3)C(=O)/N=C/1N2)C1CCN(CCc2cc(F)c([C@H]3CCC(=O)NC3=O)c(F)c2)CC1 [Example 241, (R,E)-N-(1-(4-((R)-2,6-dioxopiperidin-3-yl)-3,5-difluorophenethyl)piperidin-4-yl)-N-ethyl-1^1,2^6,7-trimethyl-3-oxo-5^2,5^3-dihydro-1^1H,5^1H-li-oxa-4-aza-5(2,1)-benzo[d]imidazola-2(2,4)-pyridina-1(4,5)-pyrazolacycloundecaphane-5^4-carboxamide] | 0.328 nM | 76.68% | 0.403 nM | 87.7% | –
Cc1cc2cc(n1)-c1cnn(C)c1OCCC[C@@H](C)CN1/C(=N/C2=O)Nc2ccc(N3CCN(C4CCN(c5cnc([C@H]6CCC(=O)NC6=O)c(F)c5)CC4)CC3=O)cc21 (single isomer, unassigned) [Example 460] | 0.629 nM | 75.27% | 0.431 nM | 89.6% | –
Cc1cc2cc(n1)-c1cnn(C)c1OCCC[C@@H](C)CN1/C(=N/C2=O)Nc2ccc(C(=O)N(C)[C@H]3CCN(C4CN(c5cc(F)c([C@H]6CCC(=O)NC6=O)c(F)c5)C4)CC3(F)F)cc21 [Example 359, (R,E)-N—((S)-1-(1-(4-((R)-2,6-dioxopiperidin-3-yl)-3,5-difluorophenyl)azetidin-3-yl)-3,3-difluoropiperidin-4-yl)-N,1^1,2^6,7-tetramethyl-3-oxo-5^2,5^3-dihydro-1^1H,5^1H-11-oxa-4-aza-5(2,1)-benzo[d]imidazola-2(2,4)-pyridina-1(4,5)-pyrazolacycloundecaphane-5^6-carboxamide] | 0.751 nM | 83.57% | 0.841 nM | 87.1% | –
Cc1cc2cc(n1)-c1cnn(C)c1OCCC[C@@H](C)CN1/C(=N/C2=O)Nc2ccc(C(=O)N(C)[C@@H]3CCN(CCc4cc(F)c([C@H]5CCC(=O)NC5=O)c(F)c4)C[C@H]3O)cc21 [Example 243, (R,E)-N-((3R,4R)-1-(4-((R)-2,6-dioxopiperidin-3-yl)-3,5-difluorophenethyl)-3-hydroxypiperidin-4-yl)-N,1^1,2^6,7-tetramethyl-3-oxo-5^2,5^3-dihydro-1^1H,5^1H-11-oxa-4-aza-5(2,1)-benzo[d]imidazola-2(2,4) -pyridina-1(4,5)-pyrazolacycloundecaphane-5^6-carboxamide] | 2.9 nM | 86.39% | 0.677 nM | 92.1% | –
Cc1cc2cc(n1)-c1cnn(C)c1OCCC[C@@H](C)CN1/C(=N/C2=O)Nc2ccc(C(=O)N(C)C3CCN(CCc4cccc5c4C4(CC4)C(=O)N5C4CCC(=O)NC4=O)CC3)cc21 (stereo partly drawn) [Example 316, (7R,E)-N-(1-(2-(1′-(2,6-dioxopiperidin-3-yl)-2′-oxospiro[cyclopropane-1,3′-indolin]-4′-yl)ethyl)piperidin-4-yl)-N,1^1,2^6,7-tetramethyl-3-oxo-5^2,5′-dihydro-1^1H,5^1H-11-oxa-4-aza-5(2,1)-benzo[d]imidazola-2(2,4)-pyridina-1(4,5)-pyrazolacycloundecaphane-5^6-carboxamide] | 0.925 nM | 47.67% | 0.655 nM | 77.9% | –
Cc1cc2cc(n1)-c1cnn(C)c1OCCC[C@@H](C)CN1/C(=N/C2=O)Nc2ccc(C(=O)N3CCN(C4CCN(c5cc(F)c([C@H]6CCC(=O)NC6=O)c(F)c5)CC4)CC3)cc21 [Example 303, (R)-3-(2,6-difluoro-4-(4-(4-((R,E)-1^1,2^6,7-trimethyl-3-oxo-5^2,5^3-dihydro-1^1H,5^1H-11-oxa-4-aza-5(2,1)-benzo[d]imidazola-2(2,4)-pyridina-1(4,5)-pyrazolacycloundecaphane-5^6-carbonyl)piperazin-1-yl)piperidin-1-yl)phenyl)piperidine-2,6-dione] | 0.246 nM | 63.64% | 0.582 nM | 80.9% | –
Cc1cc2cc(n1)-c1cnn(C)c1OCC[C@H]1C[C@@H]1CN1/C(=N/C2=O)Nc2ccc(N3CCC(N4CCN(c5cc(F)c([C@H]6CCC(=O)NC6=O)c(F)c5)CC4=O)CC3)cc21 [Example 458, (R)-3-(4-(4-(1-((7'S,7^2R,E)-1^1,2^6-dimethyl-3-oxo-5^2,5^3-dihydro-1^1H,5^1H-10-oxa-4-aza-5(2,1)-benzo[d]imidazola-2(2,4)-pyridina-1(4,5)-pyrazola-7(1,2)-cyclopropanacyclodecaphane-5^6-yl)piperidin-4-yl)-3-oxopiperazin-1-yl)-2,6-difluorophenyl)piperidine-2,6-dione] | 0.985 nM | 92.47% | 0.809 nM | 92.7% | –
